The test system of this assay is CEM cells HIV-1 protection, formazan growth assay. The experiment in a line: NCI AIDS Antiviral Assay. Particulars: for IC50: measured here: growth of uninfected CEM cells. Put shortly: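 Human CEM cells, uninfected and HIV-1-infected, exposed to five drug concentrations; growth measured by soluble formazan assay and scored as percent protection from infection, with protecting compounds retested.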

This is an account of results in PubChem BioAssay AID179 (DTP/NCI, 2004).

Structures are written as SMILES. Several values for one entry are separate records, joined by “and”; a condition that tells them apart may be missing. Equal entries are not always repeated. Activity calls are given as the source filed them.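 Rule for the calls: active = compounds giving half or more protection of infected cells from virus-caused growth loss, again on retest; inactive = the rest.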 Where a SMILES comes first, the peptide text is derived from it.

For `CN1C/C(=C\c2cccs2)C2=NN(c3ccccc3)C(c3cccs3)C2C1` (stereo not drawn), the EC50 (in general, the concentration at which the effect is half-maximal) was above 200 µM and the IC50 (commonly the point on the concentration scale where inhibition reaches its midpoint) worked out at 10.7 µM.

For `OC(c1cc2ccccc2o1)c1cc2ccccc2s1` (stereo not drawn), the EC50 is above 200 µM and the IC50 was 51.3 µM.

Turning to `N#C/C(=C/NC(=S)c1ccncc1)C(N)=O`, the EC50 was above 200 µM and the concentration for half-maximal inhibition (IC50) was above 200 µM.

For `Cc1csc2c(=O)n(COCc3ccccc3)c(=O)[nH]c12`, the EC50 was above 200 µM and the IC50 was above 200 µM.

Take `C=CC[C@@H](N)C(=O)N(C)[C@@H](C)[C@@H](O)c1ccccc1`: the EC50 is above 200 µM and the IC50 is above 200 µM.

For the molecule `[N-]=[N+]=NC1(Cc2ccccc2)C(=O)c2cccc3c2N(CCC3)C1=O` (stereo not drawn), the result was inactive.

Turning to `Nc1c(C(=O)OCc2ccccc2)[nH]c(=O)[nH]c1=O`, the EC50 was above 200 µM and the IC50 was above 200 µM.

Take `O=C1/C(=C/c2ccc3c(c2)OCO3)CCC/C1=C\c1ccc2c(c1)OCO2`: the EC50 is above 7.59 µM and the IC50 was above 7.59 µM.

Take `CCCNC(=O)N(CC)S(=O)(=O)c1ccc(Cl)cc1`: the result was inactive.

Turning to `NCC1OC(OC2C(CO)OC(OC3C(O)C(N)CC(N)C3OC3OC(CO)C(O)CC3N)C2O)C(N)C(O)C1OC1OC(CO)C(O)C(O)C1O` (stereo not drawn), the outcome was inactive.

Take `N#Cc1ccc(NC(=NCC(=O)O)Nc2cccc3ccccc23)cc1`: the EC50 was above 200 µM and the IC50 is above 200 µM.

With `CC(O)CCCOC(c1ccccc1)(c1ccccc1)c1ccccc1` (stereo not drawn), the EC50 is above 38.9 µM and the IC50 was above 38.9 µM.

In the case of `Brc1ccc2c(-c3csc(-c4c[nH]c5ccccc45)n3)c[nH]c2c1`, the EC50 is above 200 µM and the IC50 was 10.7 µM.

Regarding `NC(=O)/N=N/C(N)=O`, the EC50 was 105 µM and the 50% inhibitory concentration (IC50) amounted to 372 µM.

Consider `[Se]=P(c1ccccc1)(c1ccccc1)c1ccc(C(c2ccccc2)=P(c2ccccc2)(c2ccccc2)c2ccccc2)cc1`, for which the EC50 was above 10 µM and the IC50 amounted to 1 µM.

In the case of `Cc1c(C)c2c(c3c1OC(C)(C)CC3)CCC(C)(C)O2`, the EC50 is above 135 µM and the IC50 amounted to 74.1 µM.

Take `Cc1c(C(=O)c2ccccc2C(=O)O)c2ccccc2n1C`: the result was inactive.

On to `Cc1nc2ccc(Cl)cc2c(Cl)c1CCCl`, for which the EC50 is above 200 µM and the IC50 stood at 10.7 µM.

As for `C=CCC[P+](c1ccccc1)(c1ccccc1)c1ccccc1`, the EC50 was above 200 µM and the IC50 amounted to 2.24 µM.

For the molecule `NC(=O)NN=C1Cc2ccccc2C1`, the EC50 is above 200 µM and the IC50 is above 200 µM.

Regarding `O=C(N/N=C/c1ccccc1O)c1ccccc1O`, the EC50 is above 20 µM and the IC50 was 2.34 µM.

Regarding `O=S(=O)(O)C(C(I)I)S(=O)(=O)O`, the EC50 is above 200 µM and the IC50 is above 200 µM.

On to `C1CCc2nnnn2CC1`, for which the EC50 was > 200 µM and 120 µM; the IC50 was > 200 µM and 724 µM.

For `CC1CCC2[C@@H](C)COC3O[C@]4(C)CCC1C32OO4` (stereo partly drawn), the EC50 is above 339 µM and the IC50 came out at 302 µM.

Take `Clc1ccc2c(c1)N(CCCN1CCCC13CCCCC3)c1ccccc1S2`: the EC50 was above 200 µM and the IC50 was 102 µM.

As to `O=C(O)CNC(=O)C(CSC(=O)OCC1c2ccccc2-c2ccccc21)NC(=O)CCC(NC(=O)OCC1c2ccccc2-c2ccccc21)C(=O)O` (stereo not drawn), the EC50 was above 200 µM and the IC50 came to 107 µM.

For the molecule `OC1CC1Sc1ccccc1` (stereo not drawn), the outcome was inactive.

`O=C(CC(C(=O)c1ccsc1)c1ccccc1)c1cccs1` (stereo not drawn): the EC50 was above 200 µM and the IC50 was found to be 39.8 µM.

With `CCOC(=O)c1cnc2oc(-c3ccc(OC)cc3)nn2c1=O`, the outcome was inactive.

On to `COc1ccc(/C=C(\C)C=C(C#N)C#N)cc1`, for which the EC50 was above 44.7 µM and the IC50 is 34.7 µM.

Turning to `Cc1cc(C)c2cc(N)c(Cl)nc2n1`, the EC50 is above 200 µM and the IC50 amounted to 145 µM.

For the molecule `Cc1sc2c(c1C)C(=O)c1cccn1-2`, the EC50 is above 200 µM and the IC50 is 170 µM.

For `Cc1cccc2c1Oc1cc(Cl)ccc1C2NC(=O)CCN1CCOCC1` (stereo not drawn), the EC50 is above 200 µM and the half-inhibitory concentration (IC50) is above 200 µM.

As for `Clc1cc(Cl)c(NN=C(c2ccccc2)c2ccccc2)c(Cl)c1`, the EC50 is above 200 µM and the IC50 is above 200 µM.

Turning to `Oc1[nH]c2ccccc2c1N=NC(=S)Nc1ccc(Cl)cc1`, the EC50 was above 200 µM and the IC50 is 24.5 µM.

On to `CC1=C(C(=O)NCc2ccccc2)C(c2ccccc2O)C(C(=O)NCc2ccccc2)=C(C)N1`, for which the EC50 is above 200 µM and the IC50 turned out to be 33.9 µM.

As to `O=[N+]([O-])/C(C(Cl)=C(Cl)Cl)=C(/Sc1ccccc1)N1CCOCC1`, the EC50 was above 200 µM and the half-inhibitory concentration (IC50) turned out to be 2.63 µM.

Consider `CN(CC#N)C1CCC[C@]1(O)C#C[Si](C)(C)c1ccccc1` (stereo partly drawn), for which the EC50 is above 60.3 µM and the IC50 came out at 57.5 µM.

As for `CCOC(=O)C1=C(C)N(NC(=O)Nc2ccccc2)C2(N)N(NC(=O)Nc3ccccc3)C(C)=C(C(=O)OCC)C12C#N` (stereo not drawn), the EC50 was above 31.6 µM and the IC50 was above 31.6 µM.

Turning to `CCN(CC)CCn1c(=O)c2ccccc2n2c3c(=O)n(C)c(=O)n(C)c3nc12`, the EC50 is above 20 µM and the IC50 amounted to 1.86 µM.

For `CC1=CC(=O)NCCN1C`, the EC50 is 138 µM and the IC50 stood at 1780 µM.

For `Cn1cnnc1Sc1c([N+](=O)[O-])ncn1C`, the EC50 was above 1050 µM and the IC50 came to 9.12 µM.

In the case of `CN(C)C(=S)/N=c1\sn(C)/c(=N\C(=S)N(C)C)n1C`, the result was inactive.

As to `CCOC(=O)c1c2cccccc-2nc1Nc1cccc2c(C)ccnc12`, the outcome was inactive.

For the molecule `COC(=O)CCC(NC(=O)C(C)NC(=O)COC1C(O)C(OC(=O)CCNc2c3ccccc3nc3cccc([N+](=O)[O-])c23)OC(OCc2ccccc2)C1NC(C)=O)C(N)=O` (stereo not drawn), the result was inactive.

In the case of `O=c1[nH]cc(/C=N\OCCP(=O)(O)O)c(=O)[nH]1`, the EC50 is above 200 µM and the half-inhibitory concentration (IC50) is above 200 µM.

As to `NCC(=O)NC1(C(=O)O)CCCC1` (HELM PEPTIDE1{G.[O=C(O)C1(N[*:1])CCCC1]}$$$$V2.0), the EC50 was above 200 µM and the half-inhibitory concentration (IC50) is above 200 µM.

Turning to `CC(/C=N/NC1=NCCCCN1)=N\NC1=NCCCCN1`, the EC50 is above 200 µM and the IC50 was 120 µM.

Consider `C(=Nc1ccc(/C=C\c2ccnc3ccccc23)cc1)Nc1ccc(/C=C\c2ccnc3ccccc23)cc1`, for which the EC50 was above 7.59 µM and the concentration for half-maximal inhibition (IC50) was 5.62 µM.

With `CCOC(=O)/C=C/c1ccc(OC)cc1`, the EC50 was above 34.7 µM and the IC50 was above 34.7 µM.

`OC1(C#CCN2CCCC2)c2ccccc2Sc2ccccc21.[C-]#[O+].[C-]#[O+].[C-]#[O+].[C-]#[O+].[C-]#[O+].[C-]#[O+].[Co].[Co]`: the EC50 was above 200 µM and the half-maximal inhibitory concentration (IC50) worked out at 4.17 µM.

Consider `COC1(O)C(=O)c2ccccc2OC1(OC)c1ccccc1` (stereo not drawn), for which the EC50 was above 200 µM and the IC50 is 112 µM.

Turning to `COc1cc2c(cc1OC)C1CCc3ccccc3CN1CC2` (stereo not drawn), the EC50 was above 200 µM and the IC50 turned out to be 170 µM.

As to `CSc1nc(C)cc(=O)n1C1OC(COC(C)=O)C(OC(C)=O)C(OC(C)=O)C1OC(C)=O` (stereo not drawn), the EC50 was above 200 µM and the IC50 is above 200 µM.

As for `CC1(C)CC23CC(C)(C)c4cccc(c42)OCc2ccc4ccc5ccc(nc5c4n2)COc2cccc1c23`, the EC50 was above 50.1 µM and the IC50 is above 50.1 µM.

As for `CN(C)CC(C)(C)C(=O)/C=C/c1ccccc1`, the outcome was inactive.

Turning to `CCCCC(C#N)C(=O)NC(N)=O` (stereo not drawn), the EC50 is above 39.8 µM and the IC50 is above 39.8 µM.

On to `CCOC(=O)C1C[C@@H](O)CN1C(=O)c1ccc2c(c1)OCCO2` (stereo partly drawn), for which the EC50 was above 200 µM and the concentration for half-maximal inhibition (IC50) is above 200 µM.

For `COc1cccc2c(Nc3ccc(S(=O)(=O)Nc4ncccn4)cc3)c3ccc([N+](=O)[O-])cc3nc12`, the EC50 was above 100 µM and the half-inhibitory concentration (IC50) was above 100 µM.

With `CCC(C)NC(=O)/C(=C\c1ccccc1O)NC(=O)c1ccccc1` (stereo not drawn), the EC50 was above 200 µM and the IC50 is above 200 µM.

Turning to `N=C1C(=N)c2ccccc2-c2ccccc21.N=C1C(=N)c2ccccc2-c2ccccc21.[Cl-].[Rh+3].c1ccc(-c2ccccn2)nc1`, the result was inactive.

Consider `O=C1NC2c3c(I)sc(I)c3C(=O)C2O1` (stereo not drawn), for which the EC50 is 0.603 µM and the IC50 stood at 1.12 µM.

Take `Nc1ncnc2c(C3OC(CO)C(O)C3O)c[nH]c12` (stereo not drawn): the EC50 is above 832 µM and the IC50 turned out to be 0.263 µM.

Regarding `[Ni+2].[O-]/C(=N\N=C/c1ccccc1F)c1ccncc1.[O-]/C(=N\N=C\c1ccccc1F)c1ccncc1`, the EC50 was above 100 µM and the IC50 is above 100 µM.

`Nc1ncnc2c1nc1n2C2OC(CO)C(O)C2O1` (stereo not drawn): the EC50 was above 339 µM and the IC50 was above 339 µM.

Regarding `Brc1csnn1`, the EC50 was above 200 µM and the IC50 was above 200 µM.

Consider `COC(=O)/C(=N\Nc1nnc(C)n1N)C(C#N)c1ccc(Cl)cc1` (stereo not drawn), for which the EC50 was above 724 µM and the IC50 is 372 µM.

As to `NC(CCSCCF)C(=O)O` (stereo not drawn), the EC50 was above 692 µM and the IC50 came out at 102 µM.

Regarding `COC(=O)c1cc(C(=CCCN)c2cc(Cl)c(OC)c(C(=O)OC)c2)cc(Cl)c1OC`, the EC50 was above 200 µM and the IC50 worked out at 8.71 µM.

`N#CC(C#N)=CN1CCCC1`: the EC50 was above 200 µM and the IC50 is above 200 µM.

Regarding `O=S1Nc2c(Cl)cc(Cl)c(Cl)c2S1` (stereo not drawn), the EC50 is above 129 µM and the IC50 is above 129 µM.

For the molecule `O=C(O)c1c(CC(Cc2ccc3c(c2)CCCC3)C(=O)O)ccc2c1CCCC2` (stereo not drawn), the EC50 was above 200 µM and the IC50 was 141 µM.

Regarding `Nc1c(Cl)ncnc1N[C@@H]1C[C@H]1CO`, the EC50 was above 200 µM and the IC50 is above 200 µM.

With `S=c1sc(-c2ccc(Cl)cc2)nn1CSc1nc2ccccc2[nH]1`, the EC50 was above 200 µM and the IC50 was 31.6 µM.

Take `C=C1CC2OC(=O)C(=C)C2C(O)C2C(=C)CCC12` (stereo not drawn): the result was inactive.
